Counter-ions that a name gives are not always drawn.
What was measured:
human Cat S = human Cat S (Homo sapiens (Human), UniProt P25774); experiment: Cathepsin enzyme inhibition assay (human Cat S); assay type: biochemical; settings: enzyme 1 nM, substrate Z-Val-Val-Arg-AMC 20 μM
Experimental: (§1) Cathepsin Enzyme Inhibition Assay
(§2) Enzyme activity is measured by observing the increase in fluorescence intensity caused by cleavage of a peptide substrate containing a fluorophore whose emission is quenched in the intact peptide.
(§3) Assay buffer: 100 mM potassium phosphate pH 6.5, EDTA-Na 5 mM, Triton X-100 0.001%, DTT 5 mM.
(§4) Enzymes (all at 1 nM): human and mouse Cathepsin S, Cat K, Cat B, Cat L.
(§5) Substrate (20 μM): Z-Val-Val-Arg-AMC, except for Cat K which uses Z-Leu-Arg-AMC (both from Bachem).
Enzyme is added to the substance dilutions in 96-well microtitre plates and the reaction is started with substrate. […] IC50 are calculated by standard methods.
Inhibition of human Cat S, mouse Cat S, human Cat K, human Cat B, human Cat L and mouse Cat L have been measured separately.

human Cat L = human Cat L (Homo sapiens (Human), UniProt P07711); experiment: Cathepsin enzyme inhibition assay (human Cat L); assay type: biochemical; settings: enzyme 1 nM, substrate Z-Val-Val-Arg-AMC 20 μM
Experimental: as §1, §2, §3, §4, §5
Excitation 360 nm, Emission 465 nm.
Enzyme is added to the substance dilutions in 96-well microtitre plates and the reaction is started with substrate. Fluorescence emission is measured over 20 minutes, during which time a linear increase is observed in the absence of inhibitor. IC50 are calculated by standard methods.
Inhibition of human Cat S, mouse Cat S, human Cat K, human Cat B, human Cat L and mouse Cat L have been measured separately. The results obtained for human Cat S and L for representative compounds of the invention are expressed in the following table in μM.

human Cat L, sequence (P07711 114-333): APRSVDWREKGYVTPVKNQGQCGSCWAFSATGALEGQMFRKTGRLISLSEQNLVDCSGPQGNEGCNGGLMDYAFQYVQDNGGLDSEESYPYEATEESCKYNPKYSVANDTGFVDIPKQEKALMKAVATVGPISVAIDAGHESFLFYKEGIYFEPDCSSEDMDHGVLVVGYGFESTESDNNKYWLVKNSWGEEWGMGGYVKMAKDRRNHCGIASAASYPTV
human Cat S, sequence (P25774 115-331): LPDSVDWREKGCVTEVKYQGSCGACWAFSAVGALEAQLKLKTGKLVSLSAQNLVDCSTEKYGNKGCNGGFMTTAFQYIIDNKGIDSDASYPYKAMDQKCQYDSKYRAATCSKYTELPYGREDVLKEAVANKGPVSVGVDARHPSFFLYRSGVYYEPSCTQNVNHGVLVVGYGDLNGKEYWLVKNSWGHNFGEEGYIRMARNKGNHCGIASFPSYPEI

Molecule N#CC1(NC(=O)[C@@H]2C[C@@H](S(=O)(=O)c3ccccc3Cl)CN2C(=O)C2(c3ncc(Cl)cc3F)CNC2)CC1 [Example 12, (2S,4R)-1-(3-(5-Chloro-3-fluoropyridin-2-yl)azetidine-3-carbonyl)-4-(2-chlorophenylsulfonyl)-N-(1-cyanocyclopropyl)pyrrolidine-2-carboxamide] has an IC50 (human Cat S; pH 6.5) of 1.07 nM and an IC50 (human Cat L; pH 6.5) of 23.6 nM.

Cc1cc(-c2ccc(S(=O)(=O)[C@@H]3C[C@@H](C(=O)NC4(C#N)CC4)N(C(=O)C4(c5ncc(Cl)cc5F)CCN4)C3)c(Cl)c2)ccn1 (stereo partly drawn) [Example 43, (2S,4R)-1-[2-(5-Chloro-3-fluoro-pyridin-2-yl)-azetidine-2-carbonyl]-4-[2-chloro-4-(2-methyl-pyridin-4-yl)-benzenesulfonyl]-pyrrolidine-2-carboxylic acid (1-cyano-cyclopropyl)-amide hydrochloride] was tested, and the IC50 (human Cat S; pH 6.5) was 2.33 nM and the IC50 (human Cat L; pH 6.5) was 86.6 nM.

Molecule N#CC1(NC(=O)[C@@H]2C[C@@H](S(=O)(=O)c3ccc(F)cc3Cl)CN2C(=O)C2(c3ncc(Cl)cc3F)CCN2)CC1 (stereo partly drawn) [Example 31, (2S,4R)-4-(2-Chloro-4-fluoro-benzenesulfonyl)-1-[2-(5-chloro-3-fluoro-pyridin-2-yl)-azetidine-2-carbonyl]-pyrrolidine-2-carboxylic acid (1-cyano-cyclopropyl)-amide; hydrochloride] has an IC50 (human Cat S; pH 6.5, hydrochloride) of 1.57 nM and an IC50 (human Cat L; pH 6.5, hydrochloride) of 81.6 nM.

N#CC1(NC(=O)[C@@H]2C[C@@H](S(=O)(=O)c3ccc(OCC(F)(F)F)cc3Cl)CN2C(=O)C2(c3ccc(Br)cn3)CN(CC(F)F)C2)CC1 [Example 9, (2S,4R)-1-[3-(5-Bromo-pyridin-2-yl)-1-(2,2-difluoro-ethyl)-azetidine-3-carbonyl]-4-[2-chloro-4-(2,2,2-trifluoro-ethoxy)-benzenesulfonyl]-pyrrolidine-2-carboxylic acid (1-cyano-cyclopropyl)-amide] showed an IC50 (human Cat S; pH 6.5) of 0.779 nM and an IC50 (human Cat L; pH 6.5) of 91.7 nM.

Molecule CC(C)(C)OC(=O)N1CCC1(C(=O)N1C[C@H](S(=O)(=O)c2ccc(F)cc2Cl)C[C@H]1C(=O)NC1(C#N)CC1)c1ncc(Cl)cc1F (stereo partly drawn) [Example 24, 2-[(2S,4R)-4-(2-Chloro-4-fluoro-benzenesulfonyl)-2-(1-cyano-cyclopropylcarbamoyl)-pyrrolidine-1-carbonyl]-2-(5-chloro-3-fluoro-pyridin-2-yl)-azetidine-1-carboxylic acid tert-butyl ester] has an IC50 (human Cat S; pH 6.5) of 4.56 nM and an IC50 (human Cat L; pH 6.5) of 922 nM.

Molecule Cn1cc(-c2ccc(S(=O)(=O)[C@@H]3C[C@@H](C(=O)NC4(C#N)CC4)N(C(=O)C4(c5ncc(Br)cc5F)CCN4)C3)c(Cl)c2)cn1 (stereo partly drawn) [Example 48, (2S,4R)-1-[2-(5-Bromo-3-fluoro-pyridin-2-yl)-azetidine-2-carbonyl]-4-[2-chloro-4-(1-methyl-1H-pyrazol-4-yl)-benzenesulfonyl]-pyrrolidine-2-carboxylic acid (1-cyano-cyclopropyl)-amide hydrochloride] has an IC50 (human Cat S; pH 6.5) of 1.85 nM and an IC50 (human Cat L; pH 6.5) of 98.9 nM.

Work on N#CC1(NC(=O)[C@@H]2C[C@@H](S(=O)(=O)c3ccc(OCC(F)(F)F)cc3Cl)CN2C(=O)C2(c3ncc(Br)cc3F)CNC2)CC1 [Example 19, (2S,4R)-1-(3-(5-Bromo-3-fluoropyridin-2-yl)azetidine-3-carbonyl)-4-(2-chloro-4-(2,2,2-trifluoroethoxy)phenylsulfonyl)-N-(1-cyanocyclopropyl)pyrrolidine-2-carboxamide] yielded an IC50 (human Cat S; pH 6.5) of 1.67 nM and an IC50 (human Cat L; pH 6.5) of 33.8 nM.

With Cc1cc(-c2ccc(S(=O)(=O)[C@@H]3C[C@@H](C(=O)NC4(C#N)CC4)N(C(=O)C4(c5ncc(Br)cc5F)CCN4C(=O)OC(C)(C)C)C3)c(Cl)c2)ccn1 (stereo partly drawn) [Example 42, 2-(5-Bromo-3-fluoro-pyridin-2-yl)-2-[(2S,4R)-4-[2-chloro-4-(2-methyl-pyridin-4-yl)-benzenesulfonyl]-2-(1-cyano-cyclopropylcarbamoyl)-pyrrolidine-1-carbonyl]-azetidine-1-carboxylic acid tert-butyl ester] the IC50 (human Cat S; pH 6.5) was 4.6 nM and the IC50 (human Cat L; pH 6.5) was 662 nM.

CC(C)(C)OC(=O)N1CCC1(C(=O)N1C[C@H](S(=O)(=O)c2ccc(F)cc2Cl)C[C@H]1C(=O)NC1(C#N)CC1)c1ncc(Br)cc1F (stereo partly drawn) [Example 26, 2-(5-Bromo-3-fluoro-pyridin-2-yl)-2-[(2S,4R)-4-(2-chloro-4-fluoro-benzenesulfonyl)-2-(1-cyano-cyclopropylcarbamoyl)-pyrrolidine-1-carbonyl]-azetidine-1-carboxylic acid tert-butyl ester] was tested, and the IC50 (human Cat S; pH 6.5) was 4.45 nM and the IC50 (human Cat L; pH 6.5) was 471 nM.

Work on C[C@H](Oc1ccc(S(=O)(=O)[C@@H]2C[C@@H](C(=O)NC3(C#N)CC3)N(C(=O)C3(c4ncc(Cl)cc4F)CCN3)C2)c(Cl)c1)C(F)(F)F (stereo partly drawn) [Example 38, (2S,4R)-1-[2-(5-Chloro-3-fluoro-pyridin-2-yl)-azetidine-2-carbonyl]-4-[2-chloro-4-((S)-2,2,2-trifluoro-1-methyl-ethoxy)-benzenesulfonyl]-pyrrolidine-2-carboxylic acid (1-cyano-cyclopropyl)-amide hydrochloride] yielded an IC50 (human Cat S; pH 6.5, hydrochloride) of 4.16 nM and an IC50 (human Cat L; pH 6.5, hydrochloride) of 317 nM.

N#CC1(NC(=O)[C@@H]2C[C@@H](S(=O)(=O)c3ccc(OCC(F)(F)F)cc3Cl)CN2C(=O)C2(c3ccc(Cl)cn3)CN(CC(F)F)C2)CC1 [Example 8, (2S,4R)-1-[3-(5-Chloro-pyridin-2-yl)-1-(2,2-difluoro-ethyl)-azetidine-3-carbonyl]-4-[2-chloro-4-(2,2,2-trifluoro-ethoxy)-benzenesulfonyl]-pyrrolidine-2-carboxylic acid (1-cyano-cyclopropyl)-amide] showed an IC50 (human Cat S; pH 6.5) of 0.694 nM and an IC50 (human Cat L; pH 6.5) of 141 nM.

Work on C[C@H](Oc1ccc(S(=O)(=O)[C@@H]2C[C@@H](C(=O)NC3(C#N)CC3)N(C(=O)C3(c4ncc(Br)cc4F)CN(C=O)C3)C2)c(Cl)c1)C(F)(F)F [Example 50, (2S,4R)-1-[3-(5-Bromo-3-fluoro-pyridin-2-yl)-1-formyl-azetidine-3-carbonyl]-4-[2-chloro-4-((S)-2,2,2-trifluoro-1-methyl-ethoxy)-benzenesulfonyl]-pyrrolidine-2-carboxylic acid (1-cyano-cyclopropyl)-amide] yielded an IC50 (human Cat S; pH 6.5) of 0.9 nM and an IC50 (human Cat L; pH 6.5) of 5 nM.

Work on C[C@H](Oc1ccc(S(=O)(=O)[C@@H]2C[C@@H](C(=O)NC3(C#N)CC3)N(C(=O)C3(c4ncc(Br)cc4F)CN(CC(F)(F)F)C3)C2)c(Cl)c1)C(F)(F)F [Example 52, (2S,4R)-1-[3-(5-Bromo-3-fluoro-pyridin-2-yl)-1-(2,2,2-trifluoro-ethyl)-azetidine-3-carbonyl]-4-[2-chloro-4-((S)-2,2,2-trifluoro-1-methyl-ethoxy)-benzenesulfonyl]-pyrrolidine-2-carboxylic acid (1-cyano-cyclopropyl)-amide] yielded an IC50 (human Cat S; pH 6.5) of 1 nM and an IC50 (human Cat L; pH 6.5) of 6 nM.

Cn1cc(-c2ccc(S(=O)(=O)[C@@H]3C[C@@H](C(=O)NC4(C#N)CC4)N(C(=O)C4(c5ncc(Cl)cc5F)CCN4C(=O)OC(C)(C)C)C3)c(Cl)c2)cn1 (stereo partly drawn) [Example 45, tert-butyl 2-(5-chloro-3-fluoropyridin-2-yl)-2-((2S,4R)-4-(2-chloro-4-(1-methyl-1H-pyrazol-4-yl)phenylsulfonyl)-2-(1-cyanocyclopropylcarbamoyl)pyrrolidine-1-carbonyl)azetidine-1-carboxylate] gave an IC50 (human Cat S; pH 6.5) of 0.965 nM and an IC50 (human Cat L; pH 6.5) of 625 nM.

Work on CC(C)(C)OC(=O)N1CC(C(=O)N2C[C@H](S(=O)(=O)c3ccccc3Cl)C[C@H]2C(=O)NC2(C#N)CC2)(c2ncc(Br)cc2F)C1 [Example 11, tert-Butyl 3-(5-bromo-3-fluoropyridin-2-yl)-3-((2S,4R)-4-(2-chlorophenylsulfonyl)-2-(1-cyanocyclopropylcarbamoyl)pyrrolidine-1-carbonyl)azetidine-1-carboxylate] yielded an IC50 (human Cat S; pH 6.5) of 1.27 nM and an IC50 (human Cat L; pH 6.5) of 70.5 nM.

For CCN1CC(C(=O)N2C[C@H](S(=O)(=O)c3ccccc3Cl)C[C@H]2C(=O)NC2(C#N)CC2)(c2ncc(Br)cc2F)C1 [Example 15, (2S,4R)-1-[3-(5-Bromo-3-fluoro-pyridin-2-yl)-1-ethyl-azetidine-3-carbonyl]-4-(2-chloro-benzenesulfonyl)-pyrrolidine-2-carboxylic acid (1-cyano-cyclopropyl)-amide], the IC50 (human Cat S; pH 6.5) was 0.721 nM and the IC50 (human Cat L; pH 6.5) was 20.1 nM.

Molecule Cn1cc(-c2ccc(S(=O)(=O)[C@@H]3C[C@@H](C(=O)NC4(C#N)CC4)N(C(=O)C4(c5ncc(Cl)cc5F)CCN4)C3)c(Cl)c2)cn1 (stereo partly drawn) [Example 47, (2S,4R)-1-[2-(5-Chloro-3-fluoro-pyridin-2-yl)-azetidine-2-carbonyl]-4-[2-chloro-4-(1-methyl-1H-pyrazol-4-yl)-benzenesulfonyl]-pyrrolidine-2-carboxylic acid (1-cyano-cyclopropyl)-amide hydrochloride] has an IC50 (human Cat S; pH 6.5) of 0.791 nM and an IC50 (human Cat L; pH 6.5) of 82.1 nM.

N#CC1(NC(=O)[C@@H]2C[C@@H](S(=O)(=O)c3ccc(F)cc3Cl)CN2C(=O)C2(c3ncc(Br)cc3F)CCN2)CC1 (stereo partly drawn) [Example 36, (2S,4R)-1-[2-(5-Bromo-3-fluoro-pyridin-2-yl)-azetidine-2-carbonyl]-4-(2-chloro-4-fluoro-benzenesulfonyl)-pyrrolidine-2-carboxylic acid (1-cyano-cyclopropyl)-amide hydrochloride] was tested, and the IC50 (human Cat S; pH 6.5) was 1.42 nM and the IC50 (human Cat L; pH 6.5) was 621 nM.
